One assay concerns HCT-116. Description: Cytotoxic activity against H116 cell line. Type of assay: functional, cell-based. The note with it: Homo sapiens.
For the next assay, the system named is A549. Description: Cytotoxic activity against A-549 cell line. In kind it is functional, cell-based. The note with it: Homo sapiens.
The next assay deals with HT-29. Description: Cytotoxic activity against HT-29 cell line. Type of assay: functional, cell-based. The note with it: Homo sapiens.
For another assay, the system named is SK-MEL-28. Kind of assay: Cytotoxic activity against MEL-28 cell line. The note with it: Homo sapiens. In kind it is functional, cell-based.
The next assay deals with P388. Description: Cytotoxic activity against P-388 cell line. The note with it: Mus musculus. Type of assay: functional, cell-based.
Assay [1] in a line: Compound tested for inhibition of tubulin polymerization at 60 uM; No inhibition. In kind it is functional.
A short description of assay [2]: Compound tested for inhibition of tubulin polymerization. Type of assay: functional.

The record followed here is ChEMBL document CHEMBL1146807, “A new family of quinoline and quinoxaline analogues of combretastatins” (Bioorg Med Chem Lett, 2004).

Activity calls are given as the source filed them. No cut-off for these calls is given here.

Regarding `COc1ccc(/C=C\c2cc(OC)c(OC)c(OC)c2)cc1O` [COMBRETASTATIN A4], half-maximal inhibition in the assay on HCT-116 (IC50) was put at 0.00316 µM.

With `COc1cc(/C=C\c2ccnc3ccccc23)cc(OC)c1OC`, the IC50 with A549 is 7.94 µM; in the assay with HT-29, 15.8 µM; in the assay on SK-MEL-28 it was 7.94 µM; with HCT-116, 7.94 µM; with P388, 7.94 µM.

With `COc1cc(/C=C\c2ccc3ccccc3c2)cc(OC)c1OC` [NAPHTHYLCOMBRETASTATIN], the IC50 with HCT-116 was 0.0158 µM.

Take `COc1cc(/C=C/c2ccc3cccnc3c2)cc(OC)c1OC`: the half-inhibitory concentration (IC50) in the assay on A549, in the assay on HT-29, in the assay with SK-MEL-28, in the assay with HCT-116 and in the assay with P388 was 1.58 µM throughout.

Consider `COc1cc(/C=C\c2ccc3ncccc3c2)cc(OC)c1OC`, for which the IC50 in the assay with A549, in the assay with HT-29, in the assay with SK-MEL-28, in the assay on HCT-116 and in the assay with P388 was 0.0316 µM throughout.

Consider `COc1cc(/C=C/c2ccc3ccccc3n2)cc(OC)c1OC`, for which the IC50 in the assay on A549, in the assay with HT-29, in the assay on SK-MEL-28, in the assay with HCT-116 and in the assay on P388 was 0.398 µM throughout.

As to `COc1cc(/C=C/c2ccc3nccnc3c2)cc(OC)c1OC`, the IC50 with A549, in the assay on HT-29, with SK-MEL-28, in the assay on HCT-116 and in the assay with P388 was above 15.8 µM in each case.

In the case of `COc1cc(/C=C\c2cnc3ccccc3c2)cc(OC)c1OC`, the IC50 with A549, in the assay on HT-29, in the assay on SK-MEL-28, with HCT-116 and with P388 was 0.398 µM each time.

`COc1cc(/C=C\c2ccc3ccccc3n2)cc(OC)c1OC`: the IC50 in the assay on A549, in the assay on HT-29, in the assay on SK-MEL-28, in the assay with HCT-116 and in the assay on P388 was 0.316 µM throughout.

As for `COc1cc(/C=C\c2ccc3nc(C)c(C)nc3c2)cc(OC)c1OC`, the IC50 in the assay with A549, in the assay on HT-29, in the assay with SK-MEL-28, in the assay with HCT-116 and in the assay with P388 was above 15.8 µM throughout. The inhibition result in assay [1] is “inactive”.

In the case of `COc1cc(/C=C/c2cnc3ccccc3c2)cc(OC)c1OC`, the half-maximal inhibitory concentration (IC50) with A549, in the assay with HT-29, in the assay with SK-MEL-28, with HCT-116 and in the assay with P388 was above 3.16 µM throughout.

For the molecule `COc1cc(/C=C\c2ccc3nccnc3c2)cc(OC)c1OC`, the IC50 in the assay on A549, with HT-29, in the assay on SK-MEL-28, in the assay with HCT-116 and in the assay with P388 was 7.94 µM in each case. Further, the inhibition result in assay [1] is “inactive”.

Regarding `COc1cc(/C=C\c2ccc3cccnc3c2)cc(OC)c1OC`, the IC50 in the assay on A549 was 0.158 µM; with HT-29, 0.158 µM; in the assay on SK-MEL-28, 0.158 µM; in assay [2], 20 µM; in the assay with HCT-116 it was 0.158 µM; in the assay on P388 it was 0.158 µM.

Turning to `COc1cc(/C=C/c2ccc3nc(C)c(C)nc3c2)cc(OC)c1OC`, the IC50 in the assay on A549, in the assay with HT-29, in the assay with SK-MEL-28, in the assay with HCT-116 and in the assay with P388 was above 15.8 µM throughout.

What is called IC50 is the midpoint of a concentration-inhibition curve. Read a high IC50 as a need for much substance.
